Earlier results, collected in patent US20160074380A1, “Treatment Of Neurodegenerative Diseases With Combination Of Laquinimod And Fingolimod” (TEVA PHARMACEUTICAL INDUSTRIES LTD., priority 2014, published 2016).

Test system: mouse-cultured cortical cells
Conditions: pretreatment; Di Menna, 2013; cited from earlier work

Q: For `CCCCCCCCCCCCC/C=C/[C@@H](O)[C@@H](N)COP(=O)(O)O` [S1P, sphingosine 1-phosphate], which “protection of neurons against NMDA toxicity” value is on record?
A: protected neurons against NMDA toxicity

Q: With `CCCCCCCCc1ccc(CC[C@](N)(CO)COP(=O)(O)O)cc1` [FTY 720-P, fingolimod-phosphate] as the molecule, how does the “protection of neurons against NMDA toxicity” value read?
A: protected neurons against NMDA toxicity
